US12662707B2, “MYC amplification drives resistance to pan-RAS inhibitors in pancreatic cancer” (The Trustees of Columbia University in the City of New York, priority 2024, dated 2026)

Tested on: KPC tumor-derived cell lines
Test: Viability of cell lines from RMC-7977 resistant or naive KPC tumors
Type: cell-based, murine
Excerpt: Patient-derived xenograft (PDX) human PDAC cell lines were provided by Dr. Anirban Maitra (MD Anderson Cancer Center): Pa01C, Pa02C, Pa14C, and Pa16C. hF39 and hF43 cell lines were provided by Dr. David Tuveson (Cold Spring Harbor Laboratory). The UM147 PDX cell line was obtained from University of Michigan (PMID: 17283135). PaCaDD-137 and PaCaDD-165 were obtained from the German Collection of Microorganisms and Cell Cultures GmbH (DSMZ, world wide web dsmz.de/). All remaining cell lines were obtained from the American Type Culture Collection (ATCC). […]
PDAC murine cell lines harboring KrasG12D or KrasG12C mutations were seeded at 2×10^3 in a 96-well plate. […] Cell viability was evaluated 72 hours later by measuring adenosine triphosphate (ATP) levels using the CellTiter-Glo® Luminescent Cell Viability Assay (Promega, G7572) according to the manufacturer's instructions. For experiments comparing naive and resistant cell lines, live cells were fluorescently labelled using Calcein AM (20-minute incubation at 500 nM, Thermo Fisher) and counted using the SpectraMax i3X multimode detection platform (Molecular Devices). […] Growth percentage was calculated by normalizing drug-treated values to DMSO control, which was set to 100%. […]

CCn1c(-c2cc(N3CCN(C4CC4)CC3)cnc2[C@H](C)OC)c2c3cc(ccc31)-c1csc(n1)C[C@H](NC(=O)[C@H]1[C@@H]3COC[C@@H]31)C(=O)N1CCC[C@H](N1)C(=O)OCC(C)(C)C2 [RMC-7977]
sensitivity of treatment-naive MycGain line K2293 (K2293): lower sensitivity | sensitivity of lines from resistant tumors vs control KPC cell line (K8484) (all six lines from resistant tumors, 3-5 days): less sensitive
